According to US20070148660A1, “Treatment of maladaptive substance use with H-ras antagonists” (The Regents of the University of California, priority 2005, published 2007):

Tests used:
Ras = Ras activity assay (Raf-1-Ras binding domain GST-agarose), hippocampal slices; type: cell-based, mouse
Procedure: The treated hippocampal homogenates (250 μg) were incubated with […] of Raf-1-Ras binding domain GST-agarose for 45 min at 4° C. while rotating, as per manufacturer's instructions. […] Results were quantified by NIH Image 1.61.

NMDAR = assay: NMDAR-mediated EPSCs, whole-cell voltage clamp, hippocampal CA1; type: cell-based, mouse; details: for effect on the ethanol-induced inhibition of NMDAR-mediated EPSCs: inhibitor applied before ethanol, hippocampal slices
Procedure: Electrophysiological recordings were performed in C57BL/6J mice ranging from P21 to P26. Briefly, mice were anesthetized with halothane and decapitated as per University of California, San Francisco animal care guidelines. Horizontal sections of the hippocampus ([…]) were prepared with a vibratome (Leica, Nussloch, Germany). Slices were placed in a holding chamber and allowed to recover for at least 1 hr before being placed in the recording chamber and superfused with aCSF saturated with 95% O2/5% CO2 and containing (in mM): 119 NaCl, 1.6 KCl, 1.0 NaH2PO4, 1.3 MgCl2 (for EPSCs) or 0.01 MgCl2 (for field excitatory postsynaptic potentials (fEPSPs)), 2.5 CaCl2, 26.2 NaHCO3 and 11 glucose. Picrotoxin (100 μM) was added to block gamma-aminobutyric acid-A (GABAA) receptor-mediated inhibitory synaptic transmission, and CNQX (for EPSCs) or NBQX (for fEPSPs) (10 μM) was added to block α-amino-3-hydroxy-5-methyl-4-isoxalepropionate (AMPA)/Kainate receptors. Cells were visualized using infrared differential interference contrast video microscopy.
Whole-cell voltage clamp-recordings were made using an Axopatch ID or a MultiClamp 700A amplifier (Axon Instruments, Union City, Calif.). Electrodes (3.5-5.0 MΩ) contained (in mM): 120 Cesium methansulfonate, 20 HEPES, 0.4 EGTA, 2.8 NaCl, 5 TEA-Cl, 2.5 MgATP, and 0.25 NaGTP (pH 7.2-7.3), buffer at 270-285 mOsm. Series resistance (10-30 MΩ) and input resistance were monitored on-line with a 4 mV depolarizing step (50 ms) given just after every afferent stimulus. Recordings from the CA1 region of the hippocampus were obtained with a bipolar stimulating electrode that was placed 100-300 μm rostral to the recording electrode and was used to stimulate excitatory afferents at 0.1 Hz. Neurons were voltage-clamped at +40 mV to evoke NMDAR-mediated EPSCs. At this potential, NMDARs have a maximal open probability and the Mg^2+ block is removed. EPSCs were filtered at 2 kHz, digitized at 5-10 kHz and collected on-line using Igor Pro software (Wavemetrics, Lake Oswego, Oreg.) or pClamp 9 (Axon Instruments, Union City, Calif.). NMDAR example traces were constructed by averaging 20 EPSCs (200 sec) elicited at +40 mV during baseline, ethanol application, drug application or drug application with ethanol. To calculate the decay time (τ), Igor Pro software was used to fit exponential decay curves to averaged NMDAR-mediated EPSCs using the formula: y=A1exp(−invTau1*x)+A2exp(−invTau2X).

[1] = target: Raf-1-Ras binding domain GST agarose (UniProt P04049); assay: pull-down of hippocampal homogenates with Raf-1-Ras binding domain GST-agarose, Western blot with pan anti-Ras; ratio of Ras-GTP over total Ras, normalized to the control

`[Cl-].[K+]` [KCl] was tested. Which Ras activity (Ras; 50 mM KCl, 5 min, hippocampal slices) did it give?
The Ras activity was “increases Ras activity”.

Which results are given for `C[C@H](NC(c1cccc2[nH]c(=O)c(=O)[nH]c12)P(=O)(O)O)c1ccc(Br)cc1` (some centres unmarked) [NVP-AAM077, reference compound]?
decrease of NMDAR EPSCs (NMDAR; NVP-AAM077 0.4 μM, n=6): 55±4%; NMDAR-mediated EPSCs in slices first treated with ethanol and ifenprodil (NMDAR; NVP-AAM077 application, data not shown): no effect; weighted decay time (NMDAR; in the presence of NVP-AM077 (0.4 μM), n=6, baseline 43.0±2.1 ms): 68.7 ± 9.4 ms; effect on the ethanol-induced inhibition of NMDAR-mediated EPSCs (NMDAR): occluded

How did the “decrease of NMDAR EPSCs” value (NMDAR; ifenprodil 3 μM, n=5) turn out when `CC(C(O)c1ccc(O)cc1)N1CCC(Cc2ccccc2)CC1` (centres unmarked) [ifenprodil, reference compound] was run?
Its value is 37+5%.

What about the “NMDAR-mediated EPSCs in slices treated with both ethanol and NVP-AAM077” value (NMDAR; ifenprodil application, data not shown) of the same molecule?
The value was “further inhibition”.

What about the weighted decay time (NMDAR; in the presence of ifenprodil (3 μM), n=7, baseline 41.2±3.4 ms) of the same molecule?
Its weighted decay time is 34.7 ± 4.5 ms.

And the “effect on the ethanol-induced inhibition of NMDAR-mediated EPSCs” value (NMDAR)?
Its value is “did not”.

Which fold increase of Ras-GTP pulled down, ethanol-treated over control slices [1] does the source give for “GTP-bound active Ras, endogenous in mouse hippocampal slices (from UniProt Q61411 1-186)” here?
The fold increase of Ras-GTP pulled down, ethanol-treated over control slices was 2 fold.

For “Tat-peptide: Tat-peptide (YGRKKRRQRRR: SEQ ID NO:2) synthesized by Syn Pep, used as a control”, which “effect on ethanol-mediated increase in endogenous Ras activity” value (Ras; pre-incubation 2 hrs (Tat-H-Ras DN printed 2 mM, Tat-peptide 2 μM), then 100 mM ethanol 15 min) is on record?
Its value is “did not”.
